The results in this text go back to doi:10.1101/466938v1, “The distinct biochemical property enables thymidylate kinase as a drug target and participates in pyrimidine drug sensitivity in Candida albicans” (biorxiv, 2018).

The subject of assay [1] is T1, Candida albicans F2016f024.
T1 construct: F2016f024
The assay can be described thus: microbe, parasite or virus in culture. Set-up: species or system Candida albicans strains; CLSI M27 broth microdilution, RPMI 1640, OD600 growth, MIC at 50% inhibition. Particulars: F2016F024, 24 h, read-out: 5-FUrd MIC (µg/mL). As to the method:
(§1) Minimum inhibitory concentrations (MICs) of 5-FUrd were determined by broth microdilution method in accordance with the guidelines in Clinical and Laboratory Standards Institute (CLSI) document M27[25], using RPMI 1640 medium containing 0.165 M MOPs (pH 7.0) and 0.2% glucose, an inoculum of 10^3 cells/well, and incubated for 24 hr at 35°C, followed by OD600 reading by TECAN SPARK plate reader. The MIC50 of 5-FUrd was determined as the lowest dosage of 5-FUrd causing 50% inhibition of the growth by using the concentrations in the range of 0.004-2μg/mL. MICs of […] of human use (5-FC; four azoles: posaconazole, voriconazole, itraconazole, fluconazole; and three echinocandins: anidulafungin, caspofungin and micafungin) were determined by the microdilution colorimetric Sensititre YeastOne SYO-09 panel (TREK Diagnostic Systems, Cleveland, OH, USA); in accordance with the manufacturer’s instructions. MICs values were determined visually, after 24 hours of incubation, as the lowest concentration of drug that caused complete inhibition (amphotericin B) or a significant diminution (≥50% inhibition; flucytosine, azoles and echinocandins) of growth relative to that of the growth control. Table 2. Minimum inhibitory concentrations of 5-FUrd and antifungal drugs of clinical used for pathogenic and drug-resistant isolates of Candida albicans^a We further tested the 5-FUrd sensitivity of a number of pathogenic C. albicans isolates from patients. […] Because 5-FC is intracellularly metabolized to 5-FU, we asked why the 5-FC-resistant isolates remained sensitive to 5-FUrd. Several mutations in 5-FC resistant strains were identified in the enzymes involved in the formation of 5-FUMP from 5-FC, including purine-cytosine permease (Fcy2), cytosine deaminase (Fca1) and uracil phosphoribosyltransferase (Fur1). These 5-FC-resistant but 5-FUrd-sensitive strains might have mutations in these genes. 5-FUrd is transported into C. albicans through uridine permease (Fui1) and is then phosphorylated to 5-FUMP by uridine kinase (Urk1). Presumably, activation of 5-FUrd metabolism by the Fui1 and Urk1 pathways can overcome the defects in genes mediating 5-FC activation, namely, Fcy2, Fca1 and Fur1, leading to toxicity, as depicted in Fig 6. One important effect of antifungal drugs is host liver toxicity.

Assay [2] relates to T2, Candida albicans F2015f019.
T2 construct: F2015f019
The assay can be described thus: microbe, parasite or virus in culture. Set-up: species or system Candida albicans strains; CLSI M27 broth microdilution, RPMI 1640, OD600 growth, MIC at 50% inhibition. The settings on record: F2015F019, 24 h, read-out: 5-FUrd MIC (µg/mL). The procedure: as §1

The subject of assay [3] is T3, Candida albicans F2015b076.
T3 construct: F2015b076
The assay is described as follows: microbe, parasite or virus in culture. Particulars: F2015B076, 24 h, read-out: 5-FUrd MIC (µg/mL). Set-up: species or system Candida albicans strains; CLSI M27 broth microdilution, RPMI 1640, OD600 growth, MIC at 50% inhibition. As to the method: as §1

Assay [4] concerns T4, Candida albicans F2016g048.
T4 construct: F2016g048
The assay can be described thus: microbe, parasite or virus in culture. Set-up: species or system Candida albicans strains; CLSI M27 broth microdilution, RPMI 1640, OD600 growth, MIC at 50% inhibition. Particulars: F2016G048, 24 h, read-out: 5-FUrd MIC (µg/mL). As to the method: as §1

The test system of assay [5] is T5, Candida albicans F2016c087.
T5 construct: F2016c087
The assay can be described thus: microbe, parasite or virus in culture. Set-up: species or system Candida albicans strains; CLSI M27 broth microdilution, RPMI 1640, OD600 growth, MIC at 50% inhibition. The settings on record: F2016C087, 24 h, read-out: 5-FUrd MIC (µg/mL). The procedure:
as §1

The test system of assay [6] is T6, Candida albicans F2014a093.
T6 construct: F2014a093
The assay can be described thus: microbe, parasite or virus in culture. Set-up: species or system Candida albicans strains; CLSI M27 broth microdilution, RPMI 1640, OD600 growth, MIC at 50% inhibition. The settings on record: F2014A093, 24 h, read-out: 5-FUrd MIC (µg/mL). As to the method:
as §1

The subject of assay [7] is T7, Candida albicans F2016e085.
T7 construct: F2016e085
The assay can be described thus: microbe, parasite or virus in culture. Set-up: species or system Candida albicans strains; CLSI M27 broth microdilution, RPMI 1640, OD600 growth, MIC at 50% inhibition. The settings on record: F2016E085, 24 h, read-out: 5-FUrd MIC (µg/mL). As to the method: as §1

Assay [8] relates to T8, Candida albicans F2017g023.
T8 construct: F2017g023
The assay can be described thus: microbe, parasite or virus in culture. Set-up: species or system Candida albicans strains; CLSI M27 broth microdilution, RPMI 1640, OD600 growth, MIC at 50% inhibition. Particulars: F2017G023, 24 h, read-out: 5-FUrd MIC (µg/mL). The procedure: as §1

In assay [9] the test system is T9, Candida albicans F2014f090.
T9 construct: F2014f090
The assay can be described thus: microbe, parasite or virus in culture. Set-up: species or system Candida albicans strains; CLSI M27 broth microdilution, RPMI 1640, OD600 growth, MIC at 50% inhibition. The settings on record: F2014F090, 24 h, read-out: 5-FUrd MIC (µg/mL). The procedure: as §1

Assay [10] relates to T10, Candida albicans ATCC90028.
T10 construct: ATCC 90028
The assay is described as follows: microbe, parasite or virus in culture. The settings on record: ATCC90028, 24 h, read-out: 5-FUrd MIC (µg/mL). Set-up: species or system Candida albicans strains; CLSI M27 broth microdilution, RPMI 1640, OD600 growth, MIC at 50% inhibition. As to the method:
as §1

The subject of assay [11] is T11, Candida albicans SC5314.
T11 construct: SC5314
The assay is described as follows: microbe, parasite or virus in culture. The settings on record: SC5314, 24 h, read-out: 5-FUrd MIC (µg/mL). Set-up: species or system Candida albicans strains; CLSI M27 broth microdilution, RPMI 1640, OD600 growth, MIC at 50% inhibition. The procedure: as §1

For assay [12], the system named is T12, Candida albicans F2016a067.
T12 construct: F2016a067
The assay can be described thus: microbe, parasite or virus in culture. Set-up: species or system Candida albicans strains; CLSI M27 broth microdilution, RPMI 1640, OD600 growth, MIC at 50% inhibition. Particulars: F2016A067, 24 h, read-out: 5-FUrd MIC (µg/mL). As to the method: as §1

For assay [13], the target named is T13, CaTMPK (Candida albicans, UniProt Q59TV7).
T13 construct: gene CAALFM_C111790WA; pGEX-2T in E. coli BL21; N-terminal GST cut by thrombin; CTG codon changed to TCG to keep native Ser68; synthetic gene GenScript #5001191-1
T13 sequence (Q59TV7 1-224 limits assumed): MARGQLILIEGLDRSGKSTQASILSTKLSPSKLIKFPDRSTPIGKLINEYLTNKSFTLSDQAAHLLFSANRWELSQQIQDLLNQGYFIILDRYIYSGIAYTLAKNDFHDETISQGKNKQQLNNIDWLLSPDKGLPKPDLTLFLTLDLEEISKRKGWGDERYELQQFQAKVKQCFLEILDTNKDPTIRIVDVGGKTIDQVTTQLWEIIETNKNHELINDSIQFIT
The assay can be described thus: NADH-coupled assay (pyruvate kinase / lactate dehydrogenase). The format is biochemical. Particulars: 2 mM ATP, 100 mM Tris-HCl, 100 mM KCl, 10 mM MgCl2.

In assay [14] the target is T14, hTMPK (Homo sapiens, UniProt P23919).
T14 construct: gene DTYMK; pGEX-2T in E. coli BL21; N-terminal GST cut by thrombin
T14 sequence (P23919 1-212): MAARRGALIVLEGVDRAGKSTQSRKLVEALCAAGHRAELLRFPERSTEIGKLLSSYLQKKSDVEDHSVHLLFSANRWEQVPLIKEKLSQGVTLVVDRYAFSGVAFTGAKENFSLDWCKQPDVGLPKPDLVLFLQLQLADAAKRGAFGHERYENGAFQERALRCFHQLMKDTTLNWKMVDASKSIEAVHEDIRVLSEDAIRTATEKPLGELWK
The description is as above. It counts as biochemical. Particulars: 2 mM ATP, 100 mM Tris-HCl, 100 mM KCl, 10 mM MgCl2.

≈ marks a conversion by molar mass, not a printed value.

Turning to `O=c1[nH]c(=O)n([C@@H]2O[C@H](CO)[C@@H](O)[C@H]2O)cc1F` [5-FUrd, 5-fluorouridine], the MIC came out at 0.031 ± 0.003 µg/mL (≈ 0.118 µM) in assay [1]; 0.036 ± 0.008 µg/mL (≈ 0.137 µM) in [2]; 0.026 ± 0.001 µg/mL (≈ 0.0992 µM) in assay [3]; 0.063 ± 0.012 µg/mL (≈ 0.24 µM) in assay [4]; 0.021 ± 0.008 µg/mL (≈ 0.0801 µM) in assay [5]; 0.021 ± 0.001 µg/mL (≈ 0.0801 µM) in [6]. Further, the MIC in assay [7] was 0.076 ± 0.02 µg/mL (≈ 0.29 µM); in [8] it was 0.043 ± 0.001 µg/mL (≈ 0.164 µM); in assay [9], 0.028 ± 0.002 µg/mL (≈ 0.107 µM); in assay [10], 0.03 ± 0.011 µg/mL (≈ 0.114 µM); in [11], 0.044 ± 0.003 µg/mL (≈ 0.168 µM); in [12], 0.049 ± 0.001 µg/mL (≈ 0.187 µM).

In the case of `O=c1ccn([C@H]2C[C@H](O)[C@@H](COP(=O)(O)O)O2)c(=O)[nH]1` [dUMP], the Km entry was “Steady-state kinetics of CaTMPK and hTMPK using different dUMP concentrations” in [13]; “Steady-state kinetics of CaTMPK and hTMPK using different dUMP concentrations” in [14].
